Measured values: article PMC9986306, “Beyond CBD: Inhibitory effects of lesser studied phytocannabinoids on human voltage-gated sodium channels” (Frontiers in Physiology, 2023)
Marks after values point to notes of the source that are not given here.

Tests used:
Assay in all cases: Planar patch-clamp, biophysical properties (activation, SSFI, recovery from SSFI)
Type in all cases: cell-based
[1] = target: T1, human NaV1.1 channel (SCN1A, HEK293T cells) (Homo sapiens, UniProt P35498); conditions: change vs vehicle DMSO at IC50 concentration (CBD 18.5 μM, CBGA 13.6 μM, CBDVA 50 μM)
T1 construct: expressed in transfected cells

[2] = target: T2, human NaV1.6 channel (SCN8A, CHO cells) (Homo sapiens, UniProt Q9UQD0); conditions: change vs vehicle DMSO at IC50 concentration (CBD 16.6 μM, CBGA 12.0 μM, CBDVA 24.1 μM)
T2 construct: expressed in transfected cells
T2 sequence (Q9UQD0 whole entry): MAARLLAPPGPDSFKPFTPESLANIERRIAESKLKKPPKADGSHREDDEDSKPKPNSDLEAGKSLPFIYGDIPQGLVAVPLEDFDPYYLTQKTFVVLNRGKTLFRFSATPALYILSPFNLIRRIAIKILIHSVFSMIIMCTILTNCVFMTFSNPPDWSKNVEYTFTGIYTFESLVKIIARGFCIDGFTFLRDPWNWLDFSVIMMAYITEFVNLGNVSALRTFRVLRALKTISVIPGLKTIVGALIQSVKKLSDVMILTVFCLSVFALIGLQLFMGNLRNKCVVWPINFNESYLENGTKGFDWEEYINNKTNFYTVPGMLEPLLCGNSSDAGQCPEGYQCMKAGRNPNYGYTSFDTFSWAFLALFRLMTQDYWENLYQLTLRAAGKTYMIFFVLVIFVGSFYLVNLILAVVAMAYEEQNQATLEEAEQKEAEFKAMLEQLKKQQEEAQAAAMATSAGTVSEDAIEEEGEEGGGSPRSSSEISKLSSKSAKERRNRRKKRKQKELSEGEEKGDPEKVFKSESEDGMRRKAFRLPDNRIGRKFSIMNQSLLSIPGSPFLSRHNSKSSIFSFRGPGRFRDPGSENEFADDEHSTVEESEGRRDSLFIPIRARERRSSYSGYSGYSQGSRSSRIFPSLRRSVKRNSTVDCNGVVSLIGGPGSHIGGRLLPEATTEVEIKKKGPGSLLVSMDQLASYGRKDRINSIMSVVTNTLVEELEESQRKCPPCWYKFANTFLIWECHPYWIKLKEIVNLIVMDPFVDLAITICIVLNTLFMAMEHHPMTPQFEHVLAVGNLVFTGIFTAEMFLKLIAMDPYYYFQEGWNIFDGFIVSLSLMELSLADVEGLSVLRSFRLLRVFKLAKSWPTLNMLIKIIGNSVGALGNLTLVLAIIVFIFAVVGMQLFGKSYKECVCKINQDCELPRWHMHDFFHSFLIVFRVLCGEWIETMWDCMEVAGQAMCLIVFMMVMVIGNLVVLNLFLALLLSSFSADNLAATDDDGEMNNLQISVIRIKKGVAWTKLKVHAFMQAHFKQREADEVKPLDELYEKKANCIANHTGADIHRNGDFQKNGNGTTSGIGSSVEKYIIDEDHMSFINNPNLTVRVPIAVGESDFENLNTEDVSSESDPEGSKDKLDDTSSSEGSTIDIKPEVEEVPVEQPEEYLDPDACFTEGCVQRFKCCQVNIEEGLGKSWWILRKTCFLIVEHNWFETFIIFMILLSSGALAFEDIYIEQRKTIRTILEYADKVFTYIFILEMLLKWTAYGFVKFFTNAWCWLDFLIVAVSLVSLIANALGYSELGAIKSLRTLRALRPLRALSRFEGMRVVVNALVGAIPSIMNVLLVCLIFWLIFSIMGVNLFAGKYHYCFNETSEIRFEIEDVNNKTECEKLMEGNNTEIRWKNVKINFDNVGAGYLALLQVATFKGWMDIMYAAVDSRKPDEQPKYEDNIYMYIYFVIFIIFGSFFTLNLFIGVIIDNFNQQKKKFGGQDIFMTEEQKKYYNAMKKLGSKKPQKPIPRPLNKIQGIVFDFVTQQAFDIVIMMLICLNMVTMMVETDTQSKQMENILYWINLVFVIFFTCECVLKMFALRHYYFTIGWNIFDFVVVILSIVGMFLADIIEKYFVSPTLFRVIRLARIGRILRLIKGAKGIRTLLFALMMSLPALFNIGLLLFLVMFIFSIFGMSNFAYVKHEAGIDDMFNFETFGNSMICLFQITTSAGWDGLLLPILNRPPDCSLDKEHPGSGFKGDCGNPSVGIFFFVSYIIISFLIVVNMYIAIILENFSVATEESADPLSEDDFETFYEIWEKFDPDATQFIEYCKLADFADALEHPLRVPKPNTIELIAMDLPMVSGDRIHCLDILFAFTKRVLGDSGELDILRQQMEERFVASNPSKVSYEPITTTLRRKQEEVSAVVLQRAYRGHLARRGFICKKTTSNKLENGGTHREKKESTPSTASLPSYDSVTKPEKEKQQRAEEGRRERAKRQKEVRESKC

[3] = target: T3, human NaV1.7 channel (SCN9A, CHO cells) (Homo sapiens, UniProt Q15858); conditions: change vs vehicle DMSO at IC50 concentration (CBD 11.9 μM, CBGA 16.4 μM, CBDVA 60 μM)
T3 construct: expressed in transfected cells
T3 sequence (Q15858 whole entry): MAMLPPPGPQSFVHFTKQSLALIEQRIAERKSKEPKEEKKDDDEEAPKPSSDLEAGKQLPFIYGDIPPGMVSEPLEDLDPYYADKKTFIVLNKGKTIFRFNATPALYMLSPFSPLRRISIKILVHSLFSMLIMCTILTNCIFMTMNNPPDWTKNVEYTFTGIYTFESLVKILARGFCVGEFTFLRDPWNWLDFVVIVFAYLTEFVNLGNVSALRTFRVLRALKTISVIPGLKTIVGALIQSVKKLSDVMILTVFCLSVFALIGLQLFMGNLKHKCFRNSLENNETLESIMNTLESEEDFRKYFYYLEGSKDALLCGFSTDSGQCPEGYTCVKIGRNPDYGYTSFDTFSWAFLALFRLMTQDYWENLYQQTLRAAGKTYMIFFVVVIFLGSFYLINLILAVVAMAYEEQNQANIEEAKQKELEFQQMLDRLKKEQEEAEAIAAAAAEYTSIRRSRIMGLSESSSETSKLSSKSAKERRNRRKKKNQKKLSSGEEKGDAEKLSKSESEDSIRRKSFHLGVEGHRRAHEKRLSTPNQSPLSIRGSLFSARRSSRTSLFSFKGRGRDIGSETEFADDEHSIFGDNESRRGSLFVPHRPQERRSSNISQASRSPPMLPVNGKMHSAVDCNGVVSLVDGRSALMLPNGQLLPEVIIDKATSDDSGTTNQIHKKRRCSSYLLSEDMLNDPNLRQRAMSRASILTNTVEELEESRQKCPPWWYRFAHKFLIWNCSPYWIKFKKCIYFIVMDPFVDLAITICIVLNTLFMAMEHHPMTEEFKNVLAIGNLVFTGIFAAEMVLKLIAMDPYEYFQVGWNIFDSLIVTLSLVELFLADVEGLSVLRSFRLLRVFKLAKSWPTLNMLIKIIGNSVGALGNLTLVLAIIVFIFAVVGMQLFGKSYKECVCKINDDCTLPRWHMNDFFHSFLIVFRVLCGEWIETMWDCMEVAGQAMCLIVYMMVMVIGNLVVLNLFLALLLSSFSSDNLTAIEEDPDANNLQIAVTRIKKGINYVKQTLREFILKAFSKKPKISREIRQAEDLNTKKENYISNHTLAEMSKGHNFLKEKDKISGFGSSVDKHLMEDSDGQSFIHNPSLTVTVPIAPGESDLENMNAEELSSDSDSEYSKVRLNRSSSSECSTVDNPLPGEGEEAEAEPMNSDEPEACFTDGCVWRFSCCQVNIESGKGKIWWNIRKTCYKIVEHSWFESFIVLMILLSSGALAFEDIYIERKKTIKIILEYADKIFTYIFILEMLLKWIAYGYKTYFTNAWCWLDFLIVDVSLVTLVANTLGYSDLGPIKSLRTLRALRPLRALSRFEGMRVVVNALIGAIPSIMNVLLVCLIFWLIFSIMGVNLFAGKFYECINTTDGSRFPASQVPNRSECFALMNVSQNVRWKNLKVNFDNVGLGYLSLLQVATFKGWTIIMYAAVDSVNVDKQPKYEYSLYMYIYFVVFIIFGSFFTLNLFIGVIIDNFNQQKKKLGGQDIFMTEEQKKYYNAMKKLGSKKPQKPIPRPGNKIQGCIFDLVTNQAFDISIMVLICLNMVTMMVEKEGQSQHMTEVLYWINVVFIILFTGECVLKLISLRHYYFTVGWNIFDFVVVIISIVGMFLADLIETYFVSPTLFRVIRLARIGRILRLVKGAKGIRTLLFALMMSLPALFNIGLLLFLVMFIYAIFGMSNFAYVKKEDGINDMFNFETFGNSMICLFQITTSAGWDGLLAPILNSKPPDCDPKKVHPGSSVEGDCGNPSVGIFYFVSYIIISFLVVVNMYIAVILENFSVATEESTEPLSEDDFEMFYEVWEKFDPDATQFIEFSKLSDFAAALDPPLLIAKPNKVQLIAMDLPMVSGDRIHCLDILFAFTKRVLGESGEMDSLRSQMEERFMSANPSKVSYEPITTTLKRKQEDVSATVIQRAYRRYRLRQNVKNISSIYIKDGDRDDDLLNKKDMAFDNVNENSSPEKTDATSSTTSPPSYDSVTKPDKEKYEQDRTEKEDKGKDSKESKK

With CCCCCc1cc(O)c(C/C=C(\C)CCC=C(C)C)c(O)c1C(=O)O [CBGA, cannabigerolic acid] the “Inactivation △ V0.5 inact” value ([1]; SSFI) was 1.0 ± 1.29 mV, the “Activation △ Slope factor” value [1] was 3.1 ± 1.7 and the “Activation △ V0.5 act” value [1] was 3.9 ± 1.2** mV. The “Inactivation △ τinact SSFI at 5 mV” value [1] was 0.4 ± 0.1*, the “Inactivation △ V0.5 inact” value ([2]; SSFI) was −0.5 ± 2.4 mV and the “Inactivation △ slope factor” value ([2]; SSFI) was 1.1 ± 0.2**. For the same molecule, the “Activation △ Slope factor” value [2] was −0.4 ± 0.3, the “Activation △ V0.5 act” value [2] was 0.1 ± 1.6 mV and the “Inactivation △ τinact SSFI at 5 mV” value [2] was 0.2 ± 0.2. The “Inactivation △ V0.5 inact” value ([3]; SSFI) was −5.5 ± 2.1* mV, the “Inactivation △ slope factor” value ([3]; SSFI) was 1.3 ± 0.5* and the “Activation △ Slope factor” value [3] was 1.1 ± 0.2***. For the same molecule, the “Activation △ V0.5 act” value [3] was 4.6 ± 1.7* mV and the “Inactivation △ τinact SSFI at 5 mV” value [3] was 0.3 ± 0.06***.
